Assays:
[1] = test system: neurons of the TMN and VLPO of the hypothalamus; assay: Neuronal activity in hypothalamic nuclei (TMN, VLPO) after modafinil administration; type: in vivo, rats
Description: Activation of this histaminergic pathway by modafinil results in cortical activation and wakefulness. Thus, it appears that the physiologic basis for the wake-promoting actions of modafinil involves disinhibition of histaminergic neurons of the TMN by inhibitory actions on the VLPO. This represents the first pharmacologic agent known to produce wakefulness by activation of the TMN.

orexin neurons = assay: Double immunostaining for orexin and Fos, cell counts in the perifornical region of modafinil-treated mice; type: in vivo; conditions: wild-type mice, 150 mg/kg i.p., 2 hours
Method: To determine that modafinil might act through orexin neurons, wild-type mice were injected at noon with modafinil (150 mg/kg i.p.), or vehicle, and sacrificed 2 hours later. Brains were removed, double immunostained for orexin and Fos (an indicator of neuronal activity), and cells were counted in the periforllical region. The number of orexin-immunoreactive neurons was the same in both groups (44-47 cells/section), but the modafinil-treated group had over three times as many Fos-immunoreactive neuronal nuclei (38 in the modafinil-treated mice vs. 11 in the vehicle controls; p=0.01). Within the population of orexin-immunoreactive neurons, modafinil induced a 9-fold increase in the number of Fos-immunoreactive cells (64% double labeled neurons in the modafinil group vs. 7% in the vehicle group, p=0.01) (FIG. 1). Thus, in the lateral hypothalamus, modafinil treatment is associated with activation of orexin neurons, and is thus useful as a treatment for eating disorders or for increasing appetite.

[2] = 400 mg/day, clinical trials; cited from earlier work

SMILES: NC(=O)C[S+]([O-])C(c1ccccc1)c1ccccc1 (stereo not drawn) [modafinil, 2-(benzhydrylsulfinyl) acetamide]
- activity of the neurons in the ventrolateropreoptic area (VLPO) of the hypothalamus ([1]; rats): reduced the activity
- activity in the TMN of the posterior hypothalamus ([1]; wakefulness-promoting doses): stimulation of activity
- Fos-immunoreactive neuronal nuclei (orexin neurons; perifornical region, vehicle 11, p=0.01): 38
- double labeled (orexin/Fos) neurons within orexin-immunoreactive neurons (orexin neurons; vehicle 7%, p=0.01): 64%
- increase in the number of Fos-immunoreactive cells within orexin-immunoreactive neurons (orexin neurons; versus vehicle): 9 fold
- tolerability [2]: well tolerated

Source: patent US6455588B1, “Compositions including modafinil for treatment of eating disorders and for appetite stimulation” (Cephalon, Inc., priority 1999, dated 2002)
